Read-outs that look alike come from different tables or passages of the source.
Tests used:
[1] = tested on: A549 cells; settings: cited from earlier work
[2] = clinically successful drugs; cited from earlier work
[3] = tested on: HeLa; set-up: method as in PMID 8823519; settings: HeLa ref 87; cited from earlier work
[4] = tested on: DU145: human prostate cancer cell lines; experiment: WST-1 cell viability, DU145; format: cell-based; settings: DU-145, DU145 (prostate) cancer cell line
Source text: (§1) Different cells were utilized as follows: MEF: murine embryonic fibroblast (RRID: CVCL_L690); AML12: mouse liver cell lines (RRID: CVCL_0140); WI-38: human lung fibroblast cell lines (RRID: CVCL_0579); THLE-2: human liver epithelial cell lines (RRID: CVCL_3803); A549: human lung cancer cell lines (RRID: CVCL_0023); HEPG2: human liver cancer cell lines (RRID: CVCL_0027); HEP3B: human hepatoma cell lines (RRID: CVCL_0326); BxPC3: human pancreatic cancer cell lines (RRID: CVCL_0186); U87: human primary glioblastoma cell lines (RRID: CVCL_0022); DU145: human prostate cancer cell lines (RRID: CVCL_0105); MCF7: human breast cancer cell lines (RRID: CVCL_0031); HeLa: human cervical cancer cell lines (RRID: CVCL_0030); HCT116: human colon cancer cell lines (RRID: CVCL_0291). Cells were maintained in Dulbecco’s modified Eagle’s medium (DMEM, Gibco) supplemented with L-glutamine (Lonza) (2 mM), 10% fetal bovine serum (FBS, Hyclone), 1 × non-essential amino acids, and sodium pyruvate (1 mM). THLE-2 cells were maintained in THLE-2 Cell Complete Medium (Zhong Qiao Xin Zhou, Shanghai, China). Cells were incubated at 37 °C in a humidified incubator with 5% CO2. […]
(§2) Cell viability was assessed using the WST-1 assay, based on a previously reported method with slight modifications. […] Absorbance at OD450 was measured using a microplate reader (Synergy H1; BioTek Instruments, Winooski, VT, USA).

[5] = tested on: HEP3B: human hepatoma cell lines; experiment: WST-1 cell viability, HEP3B; format: cell-based; settings: HEP3B (liver) cancer cell line
Source text: as §1, §2

[6] = tested on: A549 cells; experiment: Comet assay; format: cell-based, human; settings: A549, 1, 8, and 12 h
Method: Residual DNA damage was detected by alkaline single cell gel electrophoresis (Comet Assay) using the Trevigen Comet Assay Kit (Trevigen, Gaithersburg, MD, USA) following the manufacturer’s protocol with slight modifications. […] The treated cells were trypsinized and pelleted by centrifugation. The cell pellets were washed and resuspended in 2 mL of ice-cold PBS. The cell suspension was mixed 1:10 (vol/vol) with low-melting point agar at 42 °C and immediately pipetted onto a CometSlide™. Slides were incubated at 4 °C in the dark for 30 min, immersed in chilled lysis solution and incubated again at 4 °C for 30 min. Slides were placed in a horizontal electrophoresis chamber and electrophoresed with buffer NaOH (0.3 M) and EDTA (1 mM) at 1 V/cm for 15 min. Samples were dried and stained with Vista Green DNA dye (Cell Biolabs, Singapore). Comet tails were imaged using a model DM 2500 fluorescent microscope (Leica, Wetzlar, Germany) and quantified by Komet 5.5 software (Andor Technology, Belfast, UK). A minimum of 50 cells were scored per treatment. All experiments were performed independently in triplicate.

[7] = tested on: MCF7: human breast cancer cell lines; experiment: WST-1 cell viability, MCF7; format: cell-based; settings: MCF7 (breast) cancer cell line
Source text: as §1, §2

[8] = tested on: A549 cells; experiment: DNA fragmentation analysis (genomic DNA electrophoresis); format: cell-based, human; settings: A549, 24 h; JH62 5–100 µM, DOX 1 and 5 μM
Method: Genomic DNA fragmentation was analyzed by agarose gel electrophoresis using previously described methods. A549 cells were seeded in 6 cm tissue culture dishes and cultured overnight. Before treatment with JH62 or DOX, the cells were cultured in DMEM lacking FBS for 16 h. After treatment, the cells were then washed three times with PBS and genomic DNA was extracted using a MasterPure™ DNA Purification Kit (Lucigen Corporation, Middleton, WI, USA). The DNA pellet was airdried and resuspended in Tris-HCl (pH 8.0, 10 mM). DNA samples (2.5 μg) were separated by 1% agarose gel electrophoresis in TAE buffer containing ethidium bromide.

[9] = tested on: HeLa: human cervical cancer cell lines; experiment: WST-1 cell viability, HeLa; format: cell-based; settings: HeLa (cervical) cancer cell line
Source text: as §1, §2

[10] = tested on: THLE-2: human liver epithelial cell lines; experiment: WST-1 cell viability, THLE-2; format: cell-based; settings: THLE-2, non-cancer cell line
Source text: as §1, §2

[11] = tested on: A549: human lung cancer cell lines; experiment: WST-1 cell viability, A549; format: cell-based; settings: Homo sapiens, A549, A549 (lung) cancer cell line, WST-1
Source text: Different cells were utilized as follows: MEF: murine embryonic fibroblast (RRID: CVCL_L690); AML12: mouse liver cell lines (RRID: CVCL_0140); WI-38: human lung fibroblast cell lines (RRID: CVCL_0579); THLE-2: human liver epithelial cell lines (RRID: CVCL_3803); A549: human lung cancer cell lines (RRID: CVCL_0023); HEPG2: human liver cancer cell lines (RRID: CVCL_0027); HEP3B: human hepatoma cell lines (RRID: CVCL_0326); BxPC3: human pancreatic cancer cell lines (RRID: CVCL_0186); U87: human primary glioblastoma cell lines (RRID: CVCL_0022); DU145: human prostate cancer cell lines (RRID: CVCL_0105); MCF7: human breast cancer cell lines (RRID: CVCL_0031); HeLa: human cervical cancer cell lines (RRID: CVCL_0030); HCT116: human colon cancer cell lines (RRID: CVCL_0291). Cells were maintained in Dulbecco’s modified Eagle’s medium (DMEM, Gibco) supplemented with L-glutamine (Lonza) (2 mM), 10% fetal bovine serum (FBS, Hyclone), 1 × non-essential amino acids, and sodium pyruvate (1 mM). THLE-2 cells were maintained in THLE-2 Cell Complete Medium (Zhong Qiao Xin Zhou, Shanghai, China). Cells were incubated at 37 °C in a humidified incubator with 5% CO2. A549 cells were previously stored in the lab and other cell lines were a gift from Haishan Wang’s lab (Institute of Molecular and Cell Biology, Singapore). All cell lines were confirmed to be contamination-free.
(§3) Cell viability was assessed using the WST-1 assay, based on a previously reported method with slight modifications. Briefly, cells were seeded at 1 × 10^4 cells per well in 96-well plates and then treated with different doses of JH62 or DOX for 0–72 h. The cells used included non-cancer cells (MEF, AML12, WI-38, and THLE-2) and cancer cells (A549, HEPG2, HEP3B, BxPC3, U87, DU145, MCF7, HeLa, and HCT116). The WST-1 reagent (Roche, Shanghai, China) was added to each well (10% vol/vol final concentration), followed by incubation for 3 h at 37 °C. Absorbance at OD450 was measured using a microplate reader (Synergy H1; BioTek Instruments, Winooski, VT, USA).

[12] = tested on: A549 cells; experiment: Chromosome staining experiment; format: cell-based, human; settings: A549, 5 μM DOX or 25 μM JH62 for 6 h
Method: Metaphase chromosome spreads were prepared from A549 cells. Briefly, A549 cells were cultured. After treatment with JH62 or DOX, cells were incubated with Colcemid (Gibco BRL; 0.2 μg/mL final concentration) for 2 h to arrest cells in metaphase. Cells were then subjected to hypotonic treatment in KCl (0.075 M) at 37 °C for 5 min, and fixed by repeated washing with ice-cold freshly prepared 3:1 (vol/vol) methanol:acetic acid. Chromosome spreads were prepared on premarked glass slides using the “drop-cryo” protocol. The chromosome suspension was dropped onto a slide. This was followed by adding three drops of 45% acetic acid and placing a coverslip over the suspension. The slide was then inverted and placed on dry ice for 15 min. The spreads were postfixed in 2.5% glutaraldehyde in cacodylate buffer (pH 7.4, 75 mM) for 15 min and washed with cacodylate buffer (0.1 M). The chromosomes were stained with Vista Green DNA dye (Cell Biolabs, Singapore). After staining, the preparations were washed in water for 5, 10, and 15 min, then dehydrated using a series of ethanol solutions as follows: 5 min in a 70% solution, 10 min in an 85% solution, and 15 min in 100% ethanol. Finally, slides were mounted with a permanent mounting medium, sealed, and analyzed by microscopy.

[13] = tested on: both non-cancer and cancer cells; experiment: WST-1 cell viability, non-cancer and cancer cells together; format: cell-based; settings: against both non-cancer and cancer cells
Method: Cell viability was assessed using the WST-1 assay, based on a previously reported method with slight modifications [54]. […] The cells used included non-cancer cells (MEF, AML12, WI-38, and THLE-2) and cancer cells (A549, HEPG2, HEP3B, BxPC3, U87, DU145, MCF7, HeLa, and HCT116). The WST-1 reagent (Roche, Shanghai, China) was added to each well (10% vol/vol final concentration), followed by incubation for 3 h at 37 °C. Absorbance at OD450 was measured using a microplate reader (Synergy H1; BioTek Instruments, Winooski, VT, USA).

[14] = tested on: HCT116: human colon cancer cell lines; experiment: WST-1 cell viability, HCT116; format: cell-based; settings: HCT-116, HCT116 (colon) cancer cell line
Source text: as §1, §2

[15] = tested on: AML12: mouse liver cell lines; experiment: WST-1 cell viability, AML12; format: cell-based; settings: AML12, non-cancer cell line
Source text: as §1, §2

[16] = tested on: non-cancer cells (MEF, AML12, WI-38, and THLE-2); experiment: WST-1 cell viability, panel of non-cancer cells; format: cell-based; settings: across non-cancer cells (MEF, AML12, WI-38, and THLE-2)
Method: as §3

[17] = tested on: cancer cell lines; experiment: WST-1 cell viability, panel of cancer cell lines; format: cell-based; settings: Homo sapiens; across the tested cancer cell lines
Method: as §3

[18] = tested on: WI-38: human lung fibroblast cell lines; experiment: WST-1 cell viability, WI-38; format: cell-based; settings: WI-38, non-cancer cell line
Source text: as §1, §2

[19] = tested on: HEPG2: human liver cancer cell lines; experiment: WST-1 cell viability, HEPG2; format: cell-based; settings: HEPG2 (liver) cancer cell line
Source text: as §1, §2

[20] = tested on: MEF: murine embryonic fibroblast; experiment: WST-1 cell viability, MEF; format: cell-based; settings: Mus musculus, non-cancer cell line
Source text: as §1, §2

[21] = tested on: U87: human primary glioblastoma cell lines; experiment: WST-1 cell viability, U87; format: cell-based; settings: U87 (glioblastoma) cancer cell line
Source text: as §1, §2

[22] = tested on: BxPC3: human pancreatic cancer cell lines; experiment: WST-1 cell viability, BxPC3; format: cell-based; settings: BXPC-3, BxPC3 (pancreatic) cancer cell line
Source text: as §1, §2

Oc1cccc2cccnc12 [8-hydroxyquinoline]
IC50 ([1]; A549 ref 85): 26000 nM

CCCCCCCc1[nH]c2ccccc2c(=O)c1O [PQS, 2-heptyl-3-hydroxy-4(1H)-quinolone]
IC50 ([1]; A549 cells ref 82,83): 19000 nM

O=C1NC(=O)C(c2ccccc2)(c2ccccc2)N1 [phenytoin]
PPB [2]: exceeding 98%

CCCCCC/C=C/Cc1c(C)c(=O)c2ccccc2n1O [E-1-hydroxy-2-(non-2-enyl)-3-methyl-4-quinolone]
IC50 [3]: 1900 nM

COc1cccc2c1C(=O)c1c(O)c3c(c(O)c1C2=O)C[C@@](O)(C(=O)CO)C[C@@H]3O[C@H]1C[C@H](N)[C@H](O)[C@H](C)O1 [DOX, Doxorubicin, reference compound]
IC50 [4]: 1900 ± 200 nM | IC50 [5]: 3300 ± 200 nM | comet tail analysis [6]: distinct and typical comet tail | IC50 [7]: 1200 ± 500 nM | genomic DNA integrity (electrophoresis) [8]: obvious DNA fragmentation | IC50 [9]: 700 ± 700 nM | IC50 [10]: 1200 ± 100 nM | IC50 [11]: 2100 ± 500 nM | chromosome morphology [12]: fragmented and adhered together | IC50 [13]: 500 to 5000 nM | IC50 [14]: 3900 ± 700 nM | IC50 [15]: 5100 ± 1300 nM | IC50 [16]: 1200 to 5100 nM | IC50 [17]: 700 to 3900 nM | IC50 [18]: 1900 ± 300 nM | IC50 [19]: 800 ± 100 nM | IC50 [20]: 3900 ± 400 nM | IC50 [21]: 1400 ± 1000 nM | IC50 [22]: 1900 ± 100 nM

Source: publication PMC12844237, “A Novel Quinolone JH62 (E-2-(Tridec-4-en-1-yl)-quinolin-4(1H)-one) from Pseudomonas aeruginosa Exhibits Potent Anticancer Activity” (Microorganisms, 2025)
